Measurements taken from US8367632B2, “Methods for reverting methylation by targeting methyltransferases” (Ohio State University Research Foundation, priority 2007, dated 2013).

Columns and labels:
Format in all cases: cell-based, human
DNMT3A 3′UTR = experiment: Luciferase reporter assay for targeting DNMT 3′UTRs (DNMT3A); details: A549 cells, 100 nM precursor miR, 24 h after transfection, with respect to the scrambled oligonucleotide
Description: (§1) To validate these miRNA-target interactions in vivo, the DNMT3A and DNTM3B complementary sites were cloned into the 3′UTR of the firefly luciferase gene and co-transfected with miR-29a, mi-R29b or miR-29c in […] (NSCLC) cells.
(§2) Luciferase reporter assay for targeting DNMT 3′UTRs. For luciferase reporter experiments a DNMT3A 3′UTR segment of 979 bp and a DNMT3B 3′UTR segment of 978 bp were amplified by PCR from human genomic DNA and inserted into the pGL3-control vector with SV40 promoter (Promega), using the XbaI site immediately […] from the stop codon of luciferase. The following sets of primers were used to generate specific fragments:
The amplified 3′UTR of DNMT3A contains an XbaI restriction site in position 583, so we cloned separately the upstream 3′UTR (DNMT3A 3′-UTRup=583 bp) and the downstream fragment (DNMT3A 3′-UTRdown=396 bp) into the pGL3 vectors. […]
A549 cells were co-transfected in 12-well plates by using Lipofectamine 2000 reagent (Invitrogen), according to the manufacturer's protocol, with 0.4 μg of the firefly luciferase report vector and 0.08 μg of the control vector containing Renilla luciferase pRL-TK vector (Promega). […] Firefly and Renilla luciferase activities were measured consecutively by using dual-luciferase assays (Promega), 24 h after the transfection. […]

DNMT3B 3′UTR = experiment: Luciferase reporter assay for targeting DNMT 3′UTRs (DNMT3B); details: A549 cells, 100 nM precursor miR, 24 h after transfection, with respect to the scrambled oligonucleotide
Description: as §1
as §2, with “fragments: […]” for “fragments:”
A549 cells were co-transfected in 12-well plates by using Lipofectamine 2000 reagent (Invitrogen), according to the manufacturer's protocol, with 0.4 μg of the firefly luciferase report vector and 0.08 μg of the control vector containing Renilla luciferase pRL-TK vector (Promega). For each well, 100 nM (final) of precursor miR-29a, 29b-1, 29c or scrambled miR (Ambion) was used. Firefly and Renilla luciferase activities were measured consecutively by using dual-luciferase assays (Promega), 24 h after the transfection. The experiments were performed in triplicate.

FHIT mRNA = FHIT mRNA level by qRT-PCR; details: A549 cells, 48 h after transfection
Description: (§3) To characterize effects of the methylation changes on gene expression, the mRNA expression levels of two TSGs, FHIT and WWOX, which are frequently silenced by promoter methylation in lung cancer^14 were analyzed.
(§4) Quantitative RT-PCR. Quantitative RT-PCR (qRT-PCR) analysis for miRNA s was performed in triplicate with the TaqMan MicroRNA assays kit (Applied Biosystems, Foster City, Calif.), according to the manufacturer's instructions. 18S RNA was used for normalization; qRT-PCR analyses for other genes of interest were performed as previously described. RNA was reverse transcribed to cDNA with gene-specific primers and IQ SYBR Green Supermix (Biorad, Hercules, Calif.). GAPDH served as normalization control. For the silencing of miR-29s, A549 and H1299 cells were transfected in 6-well plates by using Lipofectamine 2000 reagent (Invitrogen), according to the manufacturer's protocol, with 100 nM (final) of antisense miR-29a, 29b-1, 29c or scrambled antisense miR (Fidelity Systems, Gaithersburg, Md.).

WWOX mRNA = WWOX mRNA level by qRT-PCR; details: A549 cells, 48 h after transfection
Description: as §3, §4

Substance | luciferase activity (DNMT3A complementary site in 3′UTR of firefly luciferase) (DNMT3A 3′UTR) | luciferase activity (DNMT3B complementary site in 3′UTR of firefly luciferase) (DNMT3B 3′UTR) | increase of FHIT expression (mRNA) (FHIT mRNA) [%] | increase of WWOX mRNA level (WWOX mRNA) [%]
miR-29a: microRNA of the miR-29 family, SEQ ID NO: 1; transfected as precursor miR-29a (Ambion) (UAGCACCAUCUGAAAUCGGUU; listed as RNA, chemistry not given here) | significantly reduced | significantly reduced | ~65 | ~40
miR-29c: microRNA of the miR-29 family, SEQ ID NO: 3; transfected as precursor miR-29c (Ambion) (UAGCACCAUUUGAAAUCGGU; listed as RNA, chemistry not given here) | significantly reduced | significantly reduced | ~74 | –
